Publication PMC8453901, “GLPG1205, a GPR84 Modulator: Safety, Pharmacokinetics, and Pharmacodynamics in Healthy Subjects” (Clinical Pharmacology in Drug Development, 2021)
Where “and” joins values, the source holds several entries; their conditions need not be identical. Equal entries are not always repeated.

Assay: Safety and tolerability, study 1 MAD part
Assay type: in vivo, human
Experimental: Safety and tolerability were assessed on the basis of adverse events (AEs), which were monitored throughout both studies. Additional safety assessments included vital signs (including supine [and standing in study 2] heart rate, systolic and diastolic blood pressure, and oral body temperature), 12‐lead electrocardiogram (ECG), clinical laboratory tests (hematology, coagulation [study 2 only], serum/plasma chemistry, urinalysis, urine drug screen, serology, and alcohol breath test), and a comprehensive physical examination. […] In the MAD part of study 1, all additional safety assessments were performed at screening; days 1, 2, 8, 14, and 15; and at follow‐up. In study 2, additional safety assessments were performed at screening (between 21 and 2 days before the first study drug administration); days 1, 2, 5, 10, 14, 15, and 20 (clinical laboratory tests were not performed on day 20); at early discontinuation; and at follow‐up. For study 2, renal function tests (measurement of estimated creatinine clearance rate using the Cockcroft‐Gault equation) were also included in the clinical laboratory tests for safety assessment.
In both studies, the safety analysis was descriptive and focused on changes from baseline and treatment‐emergent findings.

With `O=c1nc(OC[C@@H]2COCCO2)cc2n1CCc1cc(C#CC3CC3)ccc1-2` [GLPG1205, 9‐cyclopropylethynyl‐2‐((S)‐1‐[1,4]dioxan‐2‐ylmethoxy)‐6,7‐dihydropyrimido[6,1‐a]isoquinolin‐4‐one] the “Abdominal discomfort (TEAE)” value (50 mg QD (n = 6)) was 0 number of subjects (%), the “Abdominal distension (TEAE)” value (50 mg QD (n = 6)) was 0 number of subjects (%) and the “Abdominal pain (TEAE)” value (50 mg QD (n = 6)) was 0 number of subjects (%). The “Abdominal pain upper (TEAE)” value (50 mg QD (n = 6)) was 0 number of subjects (%), the “Any TEAE” value (50 mg QD (n = 6)) was 2 (33.3) number of subjects (%) and the “Decreased appetite (TEAE)” value (50 mg QD (n = 6)) was 0 number of subjects (%). For the same compound, the “Dehydration (TEAE)” value (50 mg QD (n = 6)) was 0 number of subjects (%), the “Diarrhea (TEAE)” value (50 mg QD (n = 6)) was 1 (16.7) number of subjects (%) and the “Disturbance in attention (TEAE)” value (50 mg QD (n = 6)) was 0 number of subjects (%). For the same compound, the “Dizziness (TEAE)” value (50 mg QD (n = 6)) was 0 number of subjects (%), the “Dry skin (TEAE)” value (50 mg QD (n = 6)) was 1 (16.7) number of subjects (%) and the “Ecchymosis (TEAE)” value (50 mg QD (n = 6)) was 0 number of subjects (%). The “Erythema (TEAE)” value (50 mg QD (n = 6)) was 0 number of subjects (%), the “Fatigue (TEAE)” value (50 mg QD (n = 6)) was 0 number of subjects (%) and the “Flatulence (TEAE)” value (50 mg QD (n = 6)) was 0 number of subjects (%). The “Gastrointestinal disorders (TEAE)” value (50 mg QD (n = 6)) was 1 (16.7) number of subjects (%), the “General disorders and administration site conditions (TEAE)” value (50 mg QD (n = 6)) was 0 number of subjects (%) and the “Headache (TEAE)” value (50 mg QD (n = 6)) was 0 number of subjects (%). The “Hot flush (TEAE)” value (50 mg QD (n = 6)) was 0 number of subjects (%), the “Metabolism and nutrition disorders (TEAE)” value (50 mg QD (n = 6)) was 0 number of subjects (%) and the “Musculoskeletal and connective tissue disorders (TEAE)” value (50 mg QD (n = 6)) was 0 number of subjects (%). The “Musculoskeletal stiffness (TEAE)” value (50 mg QD (n = 6)) was 0 number of subjects (%), the “Nausea (TEAE)” value (50 mg QD (n = 6)) was 0 number of subjects (%) and the “Nervous system disorders (TEAE)” value (50 mg QD (n = 6)) was 0 number of subjects (%). The “Oropharyngeal pain (TEAE)” value (50 mg QD (n = 6)) was 0 number of subjects (%), the “Respiratory, thoracic, and mediastinal disorders (TEAE)” value (“Respiratory, thoracic” for short) (50 mg QD (n = 6)) was 0 number of subjects (%) and the “Skin and subcutaneous tissue disorders (TEAE)” value (50 mg QD (n = 6)) was 1 (16.7) number of subjects (%). For the same compound, the “Somnolence (TEAE)” value (50 mg QD (n = 6)) was 0 number of subjects (%), the “Vascular disorders (TEAE)” value (50 mg QD (n = 6)) was 0 number of subjects (%) and the “Vomiting (TEAE)” value (50 mg QD (n = 6)) was 0 number of subjects (%). The “subjects with treatment-emergent abnormality during physical examination” value (50 mg once daily) was 1 n, the “Abdominal discomfort (TEAE)” value (100 mg QD (n = 6)) was 1 (16.7) number of subjects (%) and the “Abdominal distension (TEAE)” value (100 mg QD (n = 6)) was 0 number of subjects (%). The “Abdominal pain (TEAE)” value (100 mg QD (n = 6)) was 0 number of subjects (%), the “Abdominal pain upper (TEAE)” value (100 mg QD (n = 6)) was 1 (16.7) number of subjects (%) and the “Any TEAE” value (100 mg QD (n = 6)) was 5 (83.3) number of subjects (%). For the same compound, the “Decreased appetite (TEAE)” value (100 mg QD (n = 6)) was 0 number of subjects (%), the “Dehydration (TEAE)” value (100 mg QD (n = 6)) was 0 number of subjects (%) and the “Diarrhea (TEAE)” value (100 mg QD (n = 6)) was 2 (33.3) number of subjects (%). The “Disturbance in attention (TEAE)” value (100 mg QD (n = 6)) was 0 number of subjects (%), the “Dizziness (TEAE)” value (100 mg QD (n = 6)) was 0 number of subjects (%) and the “Dry skin (TEAE)” value (100 mg QD (n = 6)) was 0 number of subjects (%). For the same compound, the “Ecchymosis (TEAE)” value (100 mg QD (n = 6)) was 1 (16.7) number of subjects (%), the “Erythema (TEAE)” value (100 mg QD (n = 6)) was 1 (16.7) number of subjects (%) and the “Fatigue (TEAE)” value (100 mg QD (n = 6)) was 0 number of subjects (%). For the same compound, the “Flatulence (TEAE)” value (100 mg QD (n = 6)) was 0 number of subjects (%), the “Gastrointestinal disorders (TEAE)” value (100 mg QD (n = 6)) was 3 (50.0) number of subjects (%) and the “General disorders and administration site conditions (TEAE)” value (100 mg QD (n = 6)) was 0 number of subjects (%). For the same compound, the “Headache (TEAE)” value (100 mg QD (n = 6)) was 3 number of subjects (%) and 3 (50.0) number of subjects (%), the “Hot flush (TEAE)” value (100 mg QD (n = 6)) was 0 number of subjects (%) and the “Metabolism and nutrition disorders (TEAE)” value (100 mg QD (n = 6)) was 0 number of subjects (%). The “Musculoskeletal and connective tissue disorders (TEAE)” value (100 mg QD (n = 6)) was 0 number of subjects (%), the “Musculoskeletal stiffness (TEAE)” value (100 mg QD (n = 6)) was 0 number of subjects (%) and the “Nausea (TEAE)” value (100 mg QD (n = 6)) was 1 (16.7) number of subjects (%). For the same compound, the “Nervous system disorders (TEAE)” value (100 mg QD (n = 6)) was 3 (50.0) number of subjects (%), the “Oropharyngeal pain (TEAE)” value (100 mg QD (n = 6)) was 1 (16.7) number of subjects (%) and the “Respiratory, thoracic” value (100 mg QD (n = 6)) was 1 (16.7) number of subjects (%). For the same compound, the “Skin and subcutaneous tissue disorders (TEAE)” value (100 mg QD (n = 6)) was 2 (33.3) number of subjects (%), the “Somnolence (TEAE)” value (100 mg QD (n = 6)) was 0 number of subjects (%) and the “Vascular disorders (TEAE)” value (100 mg QD (n = 6)) was 0 number of subjects (%). For the same compound, the “Vomiting (TEAE)” value (100 mg QD (n = 6)) was 0 number of subjects (%), the “subjects with treatment-emergent abnormality during physical examination” value (100 mg once daily) was 1 n and the “Abdominal discomfort (TEAE)” value (200 mg QD (n = 6)) was 1 (16.7) number of subjects (%). The “Abdominal distension (TEAE)” value (200 mg QD (n = 6)) was 1 (16.7) number of subjects (%), the “Abdominal pain (TEAE)” value (200 mg QD (n = 6)) was 1 (16.7) number of subjects (%) and the “Abdominal pain upper (TEAE)” value (200 mg QD (n = 6)) was 0 number of subjects (%). The “Any TEAE” value (200 mg QD (n = 6)) was 5 (83.3) number of subjects (%), the “Decreased appetite (TEAE)” value (200 mg QD (n = 6)) was 1 (16.7) number of subjects (%) and the “Dehydration (TEAE)” value (200 mg QD (n = 6)) was 2 (33.3) number of subjects (%). For the same compound, the “Diarrhea (TEAE)” value (200 mg QD (n = 6)) was 1 (16.7) number of subjects (%), the “Disturbance in attention (TEAE)” value (200 mg QD (n = 6)) was 1 (16.7) number of subjects (%) and the “Dizziness (TEAE)” value (200 mg QD (n = 6)) was 1 (16.7) number of subjects (%). The “Dry skin (TEAE)” value (200 mg QD (n = 6)) was 0 number of subjects (%), the “Ecchymosis (TEAE)” value (200 mg QD (n = 6)) was 0 number of subjects (%) and the “Erythema (TEAE)” value (200 mg QD (n = 6)) was 0 number of subjects (%). The “Fatigue (TEAE)” value (200 mg QD (n = 6)) was 3 (50.0) number of subjects (%), the “Flatulence (TEAE)” value (200 mg QD (n = 6)) was 1 (16.7) number of subjects (%) and the “Gastrointestinal disorders (TEAE)” value (200 mg QD (n = 6)) was 4 (66.7) number of subjects (%). The “General disorders and administration site conditions (TEAE)” value (200 mg QD (n = 6)) was 3 (50.0) number of subjects (%), the “Headache (TEAE)” value (200 mg QD (n = 6)) was 4 number of subjects (%) and 4 (66.7) number of subjects (%) and the “Hot flush (TEAE)” value (200 mg QD (n = 6)) was 1 (16.7) number of subjects (%). For the same compound, the “Metabolism and nutrition disorders (TEAE)” value (200 mg QD (n = 6)) was 2 (33.3) number of subjects (%), the “Musculoskeletal and connective tissue disorders (TEAE)” value (200 mg QD (n = 6)) was 1 (16.7) number of subjects (%) and the “Musculoskeletal stiffness (TEAE)” value (200 mg QD (n = 6)) was 1 (16.7) number of subjects (%). The “Nausea (TEAE)” value (200 mg QD (n = 6)) was 2 (33.3) number of subjects (%), the “Nervous system disorders (TEAE)” value (200 mg QD (n = 6)) was 5 (83.3) number of subjects (%) and the “Oropharyngeal pain (TEAE)” value (200 mg QD (n = 6)) was 2 (33.3) number of subjects (%). The “Respiratory, thoracic” value (200 mg QD (n = 6)) was 2 (33.3) number of subjects (%), the “Skin and subcutaneous tissue disorders (TEAE)” value (200 mg QD (n = 6)) was 0 number of subjects (%) and the “Somnolence (TEAE)” value (200 mg QD (n = 6)) was 1 (16.7) number of subjects (%). The “Vascular disorders (TEAE)” value (200 mg QD (n = 6)) was 1 (16.7) number of subjects (%), the “Vomiting (TEAE)” value (200 mg QD (n = 6)) was 2 (33.3) number of subjects (%) and the “subjects with treatment-emergent abnormality during physical examination” value (200 mg once daily) was 2 n. For the same compound, the “TEAE leading to study drug withdrawal: abdominal pain” value (200-mg once-daily group) was 1 n, the “TEAE leading to study drug withdrawal: decreased appetite” value (200-mg once-daily group) was 1 n and the “TEAE leading to study drug withdrawal: dehydration” value (200-mg once-daily group) was 2 n. For the same compound, the “TEAE leading to study drug withdrawal: diarrhea” value (200-mg once-daily group) was 1 n, the “TEAE leading to study drug withdrawal: dizziness” value (200-mg once-daily group) was 1 n and the “TEAE leading to study drug withdrawal: fatigue” value (200-mg once-daily group) was 2 n. The “TEAE leading to study drug withdrawal: flatulence” value (200-mg once-daily group) was 1 n, the “TEAE leading to study drug withdrawal: headache” value (200-mg once-daily group) was 3 n and the “TEAE leading to study drug withdrawal: musculoskeletal stiffness” value (200-mg once-daily group) was 1 n. The “TEAE leading to study drug withdrawal: nausea” value (200-mg once-daily group) was 1 n, the “TEAE leading to study drug withdrawal: vomiting” value (200-mg once-daily group) was 2 n and the “subjects in whom study drug was withdrawn” value (200-mg once-daily group) was 3 subjects. For the same compound, the “subjects with abnormally high hematocrit, hemoglobin and red blood cell count” value (200-mg once-daily group, day 8) was “Two” and the maximum tolerated dose (multiple doses, healthy male subjects) was 100 mg once daily.
